How the values were obtained:
CB2-receptor [1] = biological target: T1, CB2-receptor (Homo sapiens, UniProt P34972); test: Competition binding against [3H]-CP55940, CB2 membranes; conditions: ratio of Ki values
T1 construct: expressed in transfected cells; host or cells: CHO cells, stably transfected with CB2 cDNA (from IMIBIC) and transiently with CRE-luc

CB1-receptor = biological target: T2, CB1-receptor (Homo sapiens, UniProt P21554); test: cAMP-dependent luciferase assay in CHO-CB1-CRE-luc cells; format: cell-based; conditions: CHO-CB1-CRE-luc, summary classification
T2 construct: expressed in transfected cells; host or cells: CHO cells, stably transfected with CB1 cDNA (from IMIBIC) and transiently with CRE-luc
T2 sequence (P21554 whole entry): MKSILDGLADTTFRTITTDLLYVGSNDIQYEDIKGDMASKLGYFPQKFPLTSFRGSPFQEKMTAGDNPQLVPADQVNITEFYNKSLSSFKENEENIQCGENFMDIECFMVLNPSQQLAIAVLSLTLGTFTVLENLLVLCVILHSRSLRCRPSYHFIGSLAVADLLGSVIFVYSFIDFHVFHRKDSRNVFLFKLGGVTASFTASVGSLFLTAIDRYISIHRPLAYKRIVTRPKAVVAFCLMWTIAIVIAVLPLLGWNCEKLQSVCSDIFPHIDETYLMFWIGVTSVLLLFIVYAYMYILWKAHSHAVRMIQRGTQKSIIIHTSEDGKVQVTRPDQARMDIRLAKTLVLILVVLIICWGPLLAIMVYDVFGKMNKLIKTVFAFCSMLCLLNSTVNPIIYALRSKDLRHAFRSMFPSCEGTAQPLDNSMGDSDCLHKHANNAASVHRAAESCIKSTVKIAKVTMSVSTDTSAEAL
Experimental: (§1) Briefly, CHO cells were stably transfected with CB1- and CB2-receptor complementary DNAs (cDNAs) (kindly provided by IMIBIC). Around 10^5 transfected cells per milliliter were seeded in 24-well plates and transiently transfected with the plasmid CRE-luc using Roti-Fect (Carl Roth, Karlsruhe) following the manufacturer’s instructions. The cells were harvested after 24 h. Two transfected cell types resulted: CHO-CB1-CRE-luc and CHO-CB2-CRE-luc.
(§2) To test for agonistic activity at the CB1-receptor, the CHO-CB1-CRE-luc cells were stimulated for 6 h with increasing concentrations of the test compounds ([Bouaboula et al. 1997]). Forskolin (FSK), a strong CB-receptor-independent activator of adenylyl-cyclase was used at 10 µmol/L as a positive control. To investigate the antagonistic activity, the CHO-CB1-CRE-luc cells were pre-incubated for 15 min with the test compounds before stimulation for 6 h with 1 µmol/L WIN ([Zheng et al. 2013]). To investigate CB2-receptor agonistic activity, CHO-CB2-CRE-luc cells were pre-incubated for 15 min with increasing concentrations of the test substances and then for 6 h with 10 µmol/L FSK. WIN, a non-specific agonist at CB2-receptors, was used as a positive control. To confirm CB2-receptor agonistic activities of the test compounds, CHO-CB2-CRE-luc cells were pre-incubated with the specific CB2-receptor antagonist AM630 (1 µmol/L, 6-iodopravadoline; Cayman, distributed by Biozol, Hamburg) ([Ross et al. 1999]; [Zheng et al. 2013]) and then treated with increasing concentrations of the test substances.
(§3) After the stimulations and incubations, cells were lysed in a solution of 25 mmol Tris-phosphate (pH = 7.8), 8 mmol MgCl2, 1 mmol dithiothreitol (DTT), 1% Triton X-100, and 7% glycerol. The luciferase activity was measured with a Luciferase Assay Kit (Promega, Madison) according to the manufacturer’s instructions using an AutoLumat LB 9501 (Berthold Technologies, Bad Wildbad).

CB2-receptor [2] = biological target: T1, CB2-receptor; test: cAMP-dependent luciferase assay in CHO-CB2-CRE-luc cells; format: cell-based; conditions: for CB2-receptor agonistic activity (fold induction of CRE-luc): 15 min pre-incubation, then 10 µmol/L FSK for 6 h; for Effect on CB2: CHO-CB2-CRE-luc, summary classification
Experimental: as §1, §2, §3

NFAT = test: PMA/IO-induced NFAT-luc activation in Jurkat T-cells; format: cell-based; conditions: 0.5–25 µmol/L
Experimental: Jurkat T-cells (10^6 cells per milliliter) were transiently transfected with plasmids that contained an NF-κB-dependent (KBF-luc) or NFAT-dependent (NFAT-luc) promotors fused to the luciferase gene using Lipofectin (Life Technologies, Carlsbad) according to the manufacturer’s instructions ([Yano et al. 1987]; [Durand et al. 1988]). Twenty-four hours after transfection, cells were stimulated for 30 min with increasing doses of the test compounds or WIN as a control (Tocris, Bristol). Then PMA (50 ng/ml)—for NFAT-luc—plus ionomycin (0.5 µg/ml) (Sigma-Aldrich, St. Louis) was added, followed by a 6 h incubation period.
as §3

primary human monocytes = test: Anti-inflammatory effect on LPS-treated monocytes (ELISA); format: cell-based
Experimental: Human peripheral blood monocytes were prepared from healthy donors who provided written informed consent at the local blood bank (University Hospital of Freiburg, Germany). Mononuclear cells were isolated by density gradient centrifugation according to standard protocol ([English and Andersen, 1974]) using lymphocyte separation medium, (PAN Biotech, Aidenbach). Cells were resuspended in RPMI-1640 medium (Invitrogen/Thermo Fisher Scientific, Karlsruhe) containing 10% human serum (Hexacell, Berlin). About 5 × 10^5 cells per milliliter were seeded in 24-well plates and incubated at 37°C and 5% CO2. The medium and the non-adherent cells were removed by washing with PBS and fresh RPMI medium, and 1% human serum was added to each well.
To test the anti-inflammatory effect of the test compounds, monocytes were incubated for 30 min with increasing doses of the test compounds. Then lipopolysaccharide (LPS) (10 ng/ml; Escherichia coli, Sigma-Aldrich, St. Louis) was added followed by a 24 h incubation period. The supernatants were removed and the levels of IL-1β, IL-6, IL-8, TNF-α, and prostaglandin E2 (PGE2) determined by enzyme-linked immunosorbent assay (ELISA) performed according to the manufacturer’s instructions (IL-1β from Hiss, Freiburg; IL-6, IL-8, and TNF-α from ImmunoTools, Friesoythe; and PGE2 from Cayman, distributed by Biozol, Hamburg). Stimulation with LPS alone was considered 100%.

RAW264.7 macrophages = test: MTT cytotoxicity assay; format: cell-based; conditions: RAW264.7, concentrations of 5 and 10 µmol/L
Source text: Cytotoxicity tests were done on CHO cells, Jurkat T-cells, or RAW264.7 macrophages using the MTT assay (Sigma-Aldrich, St. Louis) and on primary human monocytes with the alamarBlue assay (Thermo Fisher Scientific, Karlsruhe).

CB1-/CB2-receptors = tested on: CB1-/CB2-receptors; set-up: method as in Rosenthaler et al. 2014; conditions: ref Rosenthaler et al. 2014; cited from earlier work

T1 sequence (P34972 whole entry): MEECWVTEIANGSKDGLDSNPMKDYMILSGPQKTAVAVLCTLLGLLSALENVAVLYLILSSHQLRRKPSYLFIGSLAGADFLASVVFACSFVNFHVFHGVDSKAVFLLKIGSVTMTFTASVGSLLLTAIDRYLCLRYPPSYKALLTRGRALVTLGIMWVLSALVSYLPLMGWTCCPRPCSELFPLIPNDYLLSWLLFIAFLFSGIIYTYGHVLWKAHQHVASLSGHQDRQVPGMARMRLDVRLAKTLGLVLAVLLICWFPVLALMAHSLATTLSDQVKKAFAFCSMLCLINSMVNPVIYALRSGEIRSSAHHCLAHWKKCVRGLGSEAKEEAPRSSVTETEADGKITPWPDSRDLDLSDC

| Structure (SMILES) | Selectivity CB2/CB1 (CB2-receptor [1]) | Effect on CB1 (CB1-receptor) | CB2-receptor agonistic activity (fold induction of CRE-luc) (CB2-receptor [2]) | Effect on CB2 (CB2-receptor [2]) | CB2 agonistic effect compared with positive control WIN (CB2-receptor [2]; same dose as 1 µmol/L WIN) | Inhibition of PMA/IO-induced NFAT activation (NFAT) | LPS-induced IL-1β release (primary human monocytes; LPS 10 ng/ml, 24 h) | LPS-induced IL-6 release (primary human monocytes; LPS 10 ng/ml, 24 h) | LPS-induced TNF-α release (primary human monocytes; LPS 10 ng/ml, 24 h) | Effect on cell viability (RAW264.7 macrophages) | LPS-induced IL-8 release (primary human monocytes; LPS 10 ng/ml, 24 h) | Affinity for CB1-/CB2-receptors (CB1-/CB2-receptors) | LPS-stimulated IL-8 synthesis (primary human monocytes; dose of 1 µmol/L) | LPS-stimulated PGE2 synthesis (primary human monocytes; dose of 1 µmol/L) |
| --- | --- | --- | --- | --- | --- | --- | --- | --- | --- | --- | --- | --- | --- | --- |
| C=C(C)[C@@H]1CCC(C)=C[C@H]1c1c(O)cc(CCCCC)c(C(=O)OCCO)c1O [2-HEC (1), 2-hydroxyethyl cannabidiolate] | 10.5 | Antagonist | dose dependency | Agonist | as strong as the same dose of the positive control | significantly inhibited | significantly inhibited | significantly inhibited | significantly inhibited | negative effect on cell viability | – | – | – | – |
| C=C(C)[C@@H]1CCC(C)=C[C@H]1c1c(O)cc(CCCCC)c(C(=O)OCC(O)CO)c1O (stereo partly drawn) [GCBD (3), 2,3-dihydroxypropyl cannabidiolate] | 7.8 | Antagonist | dose-dependent agonistic effects | Agonist | – | significantly inhibited | significantly inhibited | significantly inhibited | significantly inhibited | negative effect on cell viability | costimulated | – | – | – |
| C=C(C)[C@@H]1CCC(C)=C[C@H]1c1c(O)cc(CCCCC)cc1O [CBD, (-)-trans-cannabidiol] | – | – | – | – | – | – | – | – | – | – | – | poor affinity | – | – |
| C=C(C)[C@@H]1CCC(C)=C[C@H]1c1c(O)cc(CCC)cc1O [CBDV, (-)-trans-cannabidivarin] | – | – | – | – | – | – | – | – | – | – | – | poor affinity | – | – |
| C=C(C)[C@@H]1CCC(C)=C[C@H]1c1c(O)cc(CCCCC)c(C(=O)OCC(O)CCC)c1O (stereo partly drawn) [2-HPC (2), 2-hydroxypentyl cannabidiolate] | – | Antagonist | – | Agonist | – | significantly inhibited | – | significantly inhibited | significantly inhibited | negative effect on cell viability | – | – | inhibited | inhibited |

From article PMC6880192, “Structure–Effect Relationships of Novel Semi-Synthetic Cannabinoid Derivatives” (Frontiers in Pharmacology, 2019)
